One compound from PubChem BioAssay AID1159611 can be followed below.

In this test the target is Retinoic acid receptor RXR-alpha (Homo sapiens) (UniProt P19793). Description: ligand displacement at retinoid X receptor alpha – biochemical, [3H]9-cis-retinoic acid, RXRalpha, dose response (AID 1159611). The settings on record: RXRalpha [3H]9-cis-retinoic acid displacement binding.
Sequence of Retinoic acid receptor RXR-alpha (Homo sapiens) (P19793 whole entry, looked up): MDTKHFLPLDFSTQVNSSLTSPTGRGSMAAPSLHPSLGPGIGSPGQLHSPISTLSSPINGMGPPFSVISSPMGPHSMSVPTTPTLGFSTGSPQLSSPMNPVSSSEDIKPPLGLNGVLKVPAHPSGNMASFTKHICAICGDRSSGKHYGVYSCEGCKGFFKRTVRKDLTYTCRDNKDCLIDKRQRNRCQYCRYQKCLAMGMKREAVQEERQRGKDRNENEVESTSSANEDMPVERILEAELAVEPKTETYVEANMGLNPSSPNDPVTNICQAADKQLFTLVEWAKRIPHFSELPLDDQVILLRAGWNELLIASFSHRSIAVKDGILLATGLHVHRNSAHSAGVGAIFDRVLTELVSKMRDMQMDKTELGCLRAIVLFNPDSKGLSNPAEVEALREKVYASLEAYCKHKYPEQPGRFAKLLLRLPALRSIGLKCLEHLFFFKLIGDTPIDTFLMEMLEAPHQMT

`CC1=C[C@H](O)CC(C)(C)[C@H]1/C=C/C(C)=C/C=C/C(C)=C/C=C/C=C(C)/C=C/C=C(C)/C=C/C1=C(C)C[C@@H](O)CC1(C)C`: the half-inhibitory concentration (IC50) (commonly the concentration at which inhibition is half-maximal) is 5.74 µM.
